Several values for one entry are separate records, joined by “and”; a condition that tells them apart may be missing. Equal entries are not always repeated.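 Following 48 hours of exposure in 96-well plates, responses at five concentrations were used to interpolate endpoints linearly. At the GI50, growth is halved. TGI: concentration producing complete growth inhibition.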

We go through 22 molecules from PubChem BioAssay (NCI).

Among the test systems are HOP-18 NSCLC; KM20L2 colon; LXFL 529 NSCLC; SNB-78 CNS; XF 498 CNS; DU-145 prostate; HS 578T breast; MDA-MB-231 breast; PC-3 prostate; T-47D breast.
Holding throughout (test): inhibition of tumour cell growth, NCI panel, 48 h

`CN1CCCc2nc3ccccc3n2C1`: the TGI with HOP-18 NSCLC, in the assay on KM20L2 colon, in the assay on LXFL 529 NSCLC, in the assay with SNB-78 CNS and in the assay on XF 498 CNS was above 100 µM each time.
In the case of `CCCCCCCCCCCCCCCC(=O)OCC1OC(n2cc(F)c(=O)[nH]c2=O)C(NC(=O)OCc2ccccc2)C(O)C1O` (centres undefined), the TGI worked out at 37.8 µM in the assay with HOP-18 NSCLC; 41.9 µM in the assay on KM20L2 colon; 31.5 µM in the assay with LXFL 529 NSCLC; 52.1 µM in the assay on SNB-78 CNS; 31.1 µM in the assay on XF 498 CNS.
As for `CCCCCCCCCCCCCC(=O)O[C@H]1CC[C@H](NC(=O)[C@H](OC)[C@H](O)[C@@H](O)[C@H](O)/C=C/C(C)C)C(=O)N(C)C1`, the GI50 was 11.3 µM in the assay on HOP-18 NSCLC, below 0.0015 µM in the assay with KM20L2 colon, 0.00238 µM in the assay with LXFL 529 NSCLC and 0.0043 µM in the assay with XF 498 CNS. For the same molecule, the TGI with HOP-18 NSCLC is 15 µM and > 23.8 µM; in the assay on KM20L2 colon it was 15 µM and 3.8 µM; in the assay with LXFL 529 NSCLC, 15 µM and 3.94 µM; with SNB-78 CNS, 15 µM.
As for `O=C1OC(=O)c2c1nc1ccccc1c2-c1ccccc1`, the TGI in the assay with HOP-18 NSCLC, with KM20L2 colon, with LXFL 529 NSCLC and in the assay with SNB-78 CNS was above 100 µM throughout.
As for `C=C1C(=O)O[C@@H]2C[C@@]3(C)[C@H](O)CCC(=C)[C@@H]3C[C@H]12`, the TGI with KM20L2 colon was found to be 20.3 µM; with LXFL 529 NSCLC, 12.8 µM; in the assay with SNB-78 CNS, 27.8 µM; in the assay with XF 498 CNS, 9.74 µM.
As for `O=c1c2ccccc2nc(-c2cccc(Cl)c2)n1NC1OC(CO)C(O)C(O)C1O` (centres undefined), the TGI in the assay on HOP-18 NSCLC, in the assay with KM20L2 colon, in the assay with LXFL 529 NSCLC, with SNB-78 CNS and in the assay on XF 498 CNS was above 100 µM in each case.
As to `CC1CCCP(=O)(c2ccccc2)CCC1` (centres undefined), the TGI in the assay with HOP-18 NSCLC was 96.4 µM; in the assay with KM20L2 colon, above 100 µM; in the assay with LXFL 529 NSCLC, above 100 µM; in the assay on SNB-78 CNS, above 100 µM; in the assay with XF 498 CNS it was above 100 µM.
`O=C([O-])c1ccc([I+]c2ccccc2)cc1`: the TGI with HOP-18 NSCLC, with KM20L2 colon, with LXFL 529 NSCLC, in the assay on SNB-78 CNS and in the assay on XF 498 CNS was above 100 µM throughout.
Take `CC(C)(C)OC(=O)N[C@H]1CC(=O)c2ccccc2N(CC(=O)O)C1=O`: the TGI with HOP-18 NSCLC, in the assay with KM20L2 colon and in the assay with LXFL 529 NSCLC was above 100 µM throughout.
As for `COC(=O)C1CCC(C)CC1=O` (centres undefined), the TGI with LXFL 529 NSCLC, with SNB-78 CNS and in the assay with XF 498 CNS was above 100 µM each time.
As for `CS(=O)(=O)OCCN1CCN(C(=O)c2ccc(Cl)c3c(Nc4ccc(S(=O)(=O)N=C(N)N)cc4)c4ccccc4nc23)CC1`, the TGI with KM20L2 colon and in the assay on XF 498 CNS was above 100 µM throughout.
Consider `CC[n+]1c(-c2ccccc2)c2cc(N)ccc2c2ccc(N)cc21`, for which the GI50 was 2 µM in the assay with DU-145 prostate, 2.11 µM in the assay with MDA-MB-231 breast, 1.97 µM with PC-3 prostate and 0.323 µM in the assay on T-47D breast. In addition, the TGI is 13.3 µM and 42 µM in the assay with DU-145 prostate; 18.3 µM with HOP-18 NSCLC; 5.86 µM in the assay with HS 578T breast; 25.9 µM in the assay on KM20L2 colon; 2.94 µM with LXFL 529 NSCLC; 39.3 µM and 37.3 µM in the assay on MDA-MB-231 breast. Moreover, the TGI with PC-3 prostate is 17.5 µM and 26.5 µM; in the assay with T-47D breast, 2.91 µM and 15 µM.
For `CC(C)(C)C1=NO[C@H]2[C@@H](NC(=O)c3ccccc3)CC[C@@H]12`, the TGI in the assay on KM20L2 colon, with LXFL 529 NSCLC, in the assay with SNB-78 CNS and in the assay on XF 498 CNS was above 100 µM in each case.
As for `O=C1C2C(C(=O)N1Cc1ccccc1)N(Cc1ccccc1)C(=O)N2Cc1ccccc1` (centres undefined), the TGI with KM20L2 colon, with LXFL 529 NSCLC, with SNB-78 CNS and with XF 498 CNS was above 100 µM each time.
For `C1CN2CCO[SiH](O1)OCC2`, the TGI in the assay with HOP-18 NSCLC, in the assay on KM20L2 colon, in the assay on LXFL 529 NSCLC and in the assay on SNB-78 CNS was above 100 µM in each case.
For `O=C(O)c1ccccc1C(=O)c1ccco1`, the TGI in the assay on HOP-18 NSCLC, in the assay with KM20L2 colon, in the assay on SNB-78 CNS and in the assay on XF 498 CNS was above 100 µM in each case.
For `CCOC(=O)C1=C(C)N(NC(N)=O)C2(N)N(NC(N)=O)C(C)=C(C(=O)OCC)C12C#N` (centres undefined), the TGI with KM20L2 colon, in the assay on LXFL 529 NSCLC and in the assay with XF 498 CNS was above 100 µM each time.
As for `N#Cc1c(-c2ccccc2)c(-c2ccccc2)cc2c(=O)c3ccc(Cl)cc3[nH]c12`, the TGI with HOP-18 NSCLC, with KM20L2 colon, in the assay with LXFL 529 NSCLC and in the assay with XF 498 CNS was above 100 µM each time.
As for `CN(C)C1C(=O)C(C(N)=O)=C(O)C2(O)C(=O)C3=C(O)c4c(O)cccc4C(C)(O)C3CC12.[Cl][Sb]([Cl])[Cl]` (centres undefined), the GI50 was 4.33 µM in the assay with DU-145 prostate; 3 µM in the assay with HS 578T breast; 4.3 µM in the assay with MDA-MB-231 breast; 3.05 µM with PC-3 prostate; 3.81 µM with T-47D breast. Moreover, the TGI in the assay on DU-145 prostate is 14.9 µM; in the assay with HS 578T breast, above 100 µM; in the assay on MDA-MB-231 breast it was 15.3 µM; with PC-3 prostate it was 9.92 µM; in the assay on T-47D breast it was 13.2 µM.
For `COc1cc2c(c3c1c(=O)c1ccccc1n3C)C=C([N+](=O)[O-])C(C)(C)O2`, the TGI in the assay on DU-145 prostate is above 100 µM; in the assay on HS 578T breast, above 100 µM; in the assay with MDA-MB-231 breast, above 31.6 µM; in the assay on PC-3 prostate it was above 100 µM; with T-47D breast, above 100 µM.
Regarding `O=C1c2cccc3c(N4CCOCC4)ccc(c23)C(=O)N1CCN1CCN(CCCCCN2CCN(CCN3C(=O)c4cccc5c(N6CCOCC6)ccc(c45)C3=O)CC2)CC1`, the GI50 in the assay on DU-145 prostate, with HS 578T breast, with MDA-MB-231 breast, in the assay with PC-3 prostate and with T-47D breast was above 100 µM each time. The TGI with DU-145 prostate, in the assay on HS 578T breast, with MDA-MB-231 breast, with PC-3 prostate and in the assay with T-47D breast was above 100 µM throughout.
Take `C/C(=C/CCC(C)[C@@H]1CC[C@]2(C)C3=C(CC[C@@]12C)[C@@]1(C)CCC(=O)C(C)(C)[C@@H]1CC3)C(=O)O` (some centres undefined): the GI50 with DU-145 prostate was 1.2 µM; in the assay with HS 578T breast, 1.45 µM; with MDA-MB-231 breast it was 1.53 µM; in the assay on PC-3 prostate, 1.12 µM; with T-47D breast, 1.14 µM. The TGI turned out to be 2.56 µM in the assay on DU-145 prostate; 3.4 µM in the assay on HS 578T breast; 3.15 µM in the assay on MDA-MB-231 breast; 2.51 µM with PC-3 prostate; 3.08 µM with T-47D breast.
